The values below are quoted from earlier work in patent US20130309220A1, “COMPOSITIONS FOR TREATING MICROBIAL INFECTIONS” (priority 2012, published 2013).

Regarding `CCC(=O)O[C@]1(C(=O)SCF)[C@H](C)C[C@H]2[C@@H]3C[C@H](F)C4=CC(=O)C=C[C@]4(C)[C@@]3(F)[C@@H](O)C[C@@]21C` [Fluticasone propionate, S-(fluromethyl)6α,9-difluoro-11β-17-dihydroxy-16α-methyl-3-oxoandrosta-1,4-diene-17β-carbothioate,17-propionate], the “solubility in 95% ethanol” value (95% ethanol) was “slightly soluble”. In addition, the “solubility in dimethyl sulfoxide” value (dimethyl sulfoxide) was “freely soluble”. Further, under “dimethylformamide”, the solubility in dimethylformamide result is reported as “freely soluble”. In addition, the solubility in methanol entry (methanol) was “slightly soluble”. Besides, for the setting “water”, the solubility in water entry is recorded as “practically insoluble”.
